Activity calls are given as the source filed them. The rule behind the calls is not given here.
Experiments:
B16 [1] = assay: Compound was evaluated for antitumor activity against B16 melanoma cell lines in culture; format: functional, Mus musculus
L1210 [2] = assay: Compound was evaluated for antitumor activity against L-1210 cell lines in culture; format: functional, Mus musculus
[3] = Compound was evaluated for its concentration for antiviral activity against the replication of herpes simplex virus type 1 in monkey kidney cells; format: functional, Cercopithecidae
B16 [4] = assay: Compound was evaluated for antitumor activity against B16 melanoma cell lines in culture; IN-Inactive at 10E-4 concentration; format: functional, cell-based; settings: Mus musculus
L1210 [5] = assay: Compound was evaluated for antitumor activity against L-1210 cell lines in culture; IN-Inactive at 10E-4 concentration; format: functional, cell-based; settings: Mus musculus

Structure (SMILES)	Inhibition (B16 [1]) [µM]	Inhibition (L1210 [2]) [µM]	ID90 [3] [µM]	Inhibition (B16 [4])	Inhibition (L1210 [5])
C#Cc1cn([C@@H]2O[C@H](CO)[C@@H](O)[C@@H]2F)c(=O)nc1N	~60	~60	50	–	–
C#Cc1cn([C@@H]2O[C@H](CO)[C@@H](O)[C@@H]2N=[N+]=[N-])c(=O)[nH]c1=O	–	–	–	inactive	inactive

Reference: ChEMBL document CHEMBL1122787, “Acetylenic nucleosides. 3. Synthesis and biological activities of some 5-ethynylpyrimidine nucleosides” (1984)
